pIC50: −log10 of the molar value. Where a name gives a salt, the structure may show the parent alone.
target: T1, muscarinic M1 receptors (Rattus norvegicus, UniProt P08482); assay: Binding assay for muscarinic M1 receptors ([^3 H]pirenzepine displacement, rat brain membranes); conditions: 1 nM [^3 H]pirenzepine, pH 7.4, 25° C., 60 minutes
T1 construct: receptor membrane preparations from rat brain; from tissue; host or cells: rat brain membranes
T1 sequence (P08482 1-460): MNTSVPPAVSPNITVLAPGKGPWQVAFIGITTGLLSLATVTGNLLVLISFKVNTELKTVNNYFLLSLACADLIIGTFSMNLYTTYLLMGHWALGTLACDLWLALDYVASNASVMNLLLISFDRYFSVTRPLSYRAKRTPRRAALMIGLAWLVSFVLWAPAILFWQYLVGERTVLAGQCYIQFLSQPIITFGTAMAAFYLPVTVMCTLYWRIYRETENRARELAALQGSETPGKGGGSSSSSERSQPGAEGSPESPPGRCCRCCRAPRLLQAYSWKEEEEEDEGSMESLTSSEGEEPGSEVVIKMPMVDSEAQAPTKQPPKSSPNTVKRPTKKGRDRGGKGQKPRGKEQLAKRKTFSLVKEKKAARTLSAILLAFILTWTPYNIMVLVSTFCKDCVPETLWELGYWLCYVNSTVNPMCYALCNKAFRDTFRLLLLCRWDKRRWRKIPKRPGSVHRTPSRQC
Method: (3) Effect on muscarinic M1 receptors
Binding assay for muscarinic M1 receptors was carried out according to the method of Watson and Yamamura [Life Sci. 3001-3011(1983)]. Namely, the receptor membrane preparations from rat brain were incubated with 1 nM [^3 H]pirenzepine in 10 mM Na/K phosphate buffer solution (pH 7.4) at 25° C. for 60 minutes. 1 μM of atropine was used as a displacer.

Structure (SMILES)	pIC50
Cc1cc(O[C@H]2CN3CCC2CC3)nc(-c2ccc(F)cc2)n1 [Example 27, (R)-(-)-4-(1-azabicyclo[2,2,2]octo-3-yloxy)-2-(4-fluorophenyl) 6-methylpyrimidine maleate]	6.77
Cc1cc(O[C@H]2CN3CCC2CC3)nc(-c2ccc(Cl)cc2)n1 [Example 44, (R)-(-)-4-(1-azabicyclo[2,2,2]octo-3-yloxy)-2-(4-chlorophenyl) 6-methylpyrimidine maleate]	6.62
Cc1cc(O[C@H]2CN3CCC2CC3)nc(-c2ccc(O)cc2)n1 [Example 58, (R)-(-)-4-(1-azabicyclo[2,2,2]octo-3-yloxy)-2-(4-hydroxyphenyl) 6-methylpyrimidine maleate]	6.09
COc1ccc(-c2nc(O[C@H]3CN4CCC3CC4)cc(C(C)(C)C)n2)cc1 [Example 60, (R)-(-)-4-(1-azabicyclo[2,2,2]octo-3-yloxy)-6-tert-butyl-2-(4-methoxyphenyl)pyrimidine maleate]	5.51
Fc1ccc(-c2nc(O[C@H]3CN4CCC3CC4)cc(C(F)(F)F)n2)cc1 [Example 63, (R)-(-)-4-(1-azabicyclo[2,2,2]octo-3-yloxy)-2-(4-fluorophenyl) 6-trifluoromethylpyrimidine maleate]	6.22

test system: mice; assay: Acute toxicity (mice, p.o.); assay type: in vivo; conditions: 1000 mg/kg p.o., male mice, 72 hours
Method: Male mice, 6 weeks of age (4 mice/group) were deprived of foods overnight. Test drugs suspended in 0.5% methyl cellulose solution were administered orally to the mice. Whether the animals were dead or not was observed 72 hours after the treatment of the drugs.

Structure (SMILES)	Lethality (Number of dead animals/Number of animals used)
COc1ccc(-c2nc(C)cc(OCCN3CCN(C(c4ccccc4)c4ccccc4)CC3)n2)cc1 [Example 3, 4-[2-(4-diphenylmethylpiperazino)ethoxy]-2-(4-methoxyphenyl)-6-methylpyrimidine]	0/4
COc1ccc(-c2nc(C)cc(N3CCN(C(c4ccccc4)c4ccccc4)CC3)n2)cc1 [Example 4, 4-(4-diphenylmethylpiperazino)-2-(4-methoxyphenyl)-6-methylpyrimidine]	0/4
Cc1cc(OCCN2CCN(c3ccccc3)CC2)nc(-c2ccccc2)n1.O=C(O)/C=C\C(=O)O [Example 11, 4-Methyl-2-phenyl-6-[2-(4-phenylpiperazino)ethoxy] pyrimidine maleate]	0/4
Cc1cc(OCCN2CCN(C(c3ccccc3)c3ccccc3)CC2)nc(-c2ccccc2)n1 [Example 13, 4-[2-(4-diphenylmethylpiperazino)ethoxy]-6-methyl-2-phenylpyrimidine]	0/4
COc1ccc(-c2nc(C)cc(OCCN3CCN(c4ccccc4)CC3)n2)cc1 [Example 21, 2-(4-methoxyphenyl)-4-methyl-6-[2-(4-phenylpiperazino)ethoxy]pyrimidine]	0/4
Cc1cc(N2CCN(C(c3ccccc3)c3ccccc3)CC2)nc(-c2ccccc2)n1 [Example 35, 4-(4-diphenylmethylpiperazino)-6-methyl-2-phenylpyrimidine]	0/4
Cc1cc(O[C@H]2CN3CCC2CC3)nc(-c2ccc(Cl)cc2)n1 [Example 44, (R)-(-)-4-(1-azabicyclo[2,2,2]octo-3-yloxy)-2-(4-chlorophenyl) 6-methylpyrimidine maleate]	0/4
Cc1cc(O[C@H]2CN3CCC2CC3)nc(-c2ccc(O)cc2)n1 [Example 58, (R)-(-)-4-(1-azabicyclo[2,2,2]octo-3-yloxy)-2-(4-hydroxyphenyl) 6-methylpyrimidine maleate]	0/4

From patent US5589477A, “Pyrimidine derivatives and drugs” (Nippon Shinyaku Company, Limited, priority 1990, dated 1996)
